Test results from US10513521B2, “Compositions and methods for inhibiting BMP” (The Brigham and Women's Hospital, Inc., priority 2014, dated 2019).
Residue numbers refer to the chain shown, from its start. Read-outs that look alike come from different tables or passages of the source.

Key:
ALK5 = target: T1, ALK5 (Homo sapiens, UniProt P36897); assay: TR-FRET enzymatic ALK kinase assay, ALK5
T1 sequence (P36897 34-503): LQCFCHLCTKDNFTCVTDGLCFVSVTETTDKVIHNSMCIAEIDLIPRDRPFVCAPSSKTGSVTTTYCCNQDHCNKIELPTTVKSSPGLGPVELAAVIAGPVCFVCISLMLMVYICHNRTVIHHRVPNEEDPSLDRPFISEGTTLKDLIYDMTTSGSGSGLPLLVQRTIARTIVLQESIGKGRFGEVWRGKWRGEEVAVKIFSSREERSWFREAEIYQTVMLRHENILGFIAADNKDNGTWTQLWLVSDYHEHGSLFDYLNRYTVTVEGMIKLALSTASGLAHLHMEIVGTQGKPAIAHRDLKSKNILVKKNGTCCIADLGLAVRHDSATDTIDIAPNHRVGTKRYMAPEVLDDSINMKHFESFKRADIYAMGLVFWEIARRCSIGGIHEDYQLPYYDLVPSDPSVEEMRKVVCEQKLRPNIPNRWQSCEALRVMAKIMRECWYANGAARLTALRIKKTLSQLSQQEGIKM
Experimental: Six ALK kinase enzyme assays were developed for determination of compound activities on ALK1, ALK2, ALK3, ALK4, ALK5 and ALK6.
(§1) Briefly, the ALKs enzymatic assay was initiated by dispense 2.5 μl enzyme in 1× kinase reaction buffer. The assay plate was then added with compounds followed by incubation at room temperature for 10 minutes. Then 2.5 μl/well substrate was added.

ALK6 = ALK6 (Homo sapiens, UniProt O00238); assay: TR-FRET enzymatic ALK kinase assay, ALK6
Experimental: as §1

ALK1 = ALK1 (Homo sapiens, UniProt P37023); assay: TR-FRET enzymatic ALK kinase assay, ALK1
Experimental: as §1

ALK2 [1] = target: T2, ALK2 (Mus musculus, UniProt P37172); assay: HTRF pSMAD1 cell-based ALK2 assay (C2C12 cells, BMP6 as agonist); settings: BMP6
T2 construct: The C2C12 cell line was selected for the measurement of ALK2 activity using BMP6 as the agonist; host or cells: C2C12
T2 sequence (P37172 21-509): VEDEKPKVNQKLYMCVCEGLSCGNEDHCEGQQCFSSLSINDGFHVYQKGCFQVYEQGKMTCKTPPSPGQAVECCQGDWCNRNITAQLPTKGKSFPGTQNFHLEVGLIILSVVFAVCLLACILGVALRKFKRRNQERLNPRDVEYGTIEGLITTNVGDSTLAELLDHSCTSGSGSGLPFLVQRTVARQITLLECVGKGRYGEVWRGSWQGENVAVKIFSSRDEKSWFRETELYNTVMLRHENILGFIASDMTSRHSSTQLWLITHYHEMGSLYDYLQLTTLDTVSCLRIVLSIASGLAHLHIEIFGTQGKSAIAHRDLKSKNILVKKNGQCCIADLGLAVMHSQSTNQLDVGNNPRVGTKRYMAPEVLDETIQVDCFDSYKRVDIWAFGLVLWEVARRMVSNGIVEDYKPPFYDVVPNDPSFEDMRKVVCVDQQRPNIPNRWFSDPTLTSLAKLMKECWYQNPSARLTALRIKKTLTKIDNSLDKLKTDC
Experimental: 2. HTRF Cell-Based ALK1 and ALK2 Assays in 384-Well Plate Format We have developed a cell based ALK1 kinase assay and a cell-based ALK2 assay. The BAOEC cell line was employed for the measurement of ALK1 activity using BMP9 as the agonist. The C2C12 cell line was selected for the measurement of ALK2 activity using BMP6 as the agonist. The kinase specificity was defined by the specific cell line and agonist. The kinase activity was determined by the status of SMD 1/5/8 phosphorylation stimulated by the agonist.
HyClone Fetal Bovine Serum was obtained from GE healthcare life sciences (Logan, Utah). BMP6 and BMP9 were purchased from R&D System. […] The compound plates and the white solid MB assay plates were purchased from Greiner Bio-one (Monroe, N.C.).
HTRF optimization experiments were performed in 384 well plate format. […] Pre-starved cells were then plated in 384 well plate in the starvation medium (containing in 0.1% FBS). After 4 hours, compounds were added to the assay plate and incubated for 30 minutes. The assay plate was then added with BMP6 for C2C12 cells or BMP9 for BAOEC cells and incubated for 30 minutes.
HTRF assay was performed to measure the status of SMAD 1 phosphorylation after stimulated with the agonist (Table 3). This HTRF phospho SMAD1 cell assay was developed and optimized for the homogenous detection of phospho SMAD 1 levels in cells. […] The plate was incubated at room temperature for overnight.

ALK2 [2] = target: T3, ALK2 (Homo sapiens, UniProt Q04771); assay: TR-FRET enzymatic ALK kinase assay, ALK2
T3 sequence (Q04771 21-509): T2 sequence (P37172 21-509) with V1M, Q10P, I121L, E162D, S310P
Experimental: as §1

ALK3 = ALK3 (Homo sapiens, UniProt P36894); assay: TR-FRET enzymatic ALK kinase assay, ALK3
Experimental: as §1

ALK4 = target: T4, ALK4 (Homo sapiens, UniProt P36896); assay: TR-FRET enzymatic ALK kinase assay, ALK4
T4 sequence (P36896 24-505): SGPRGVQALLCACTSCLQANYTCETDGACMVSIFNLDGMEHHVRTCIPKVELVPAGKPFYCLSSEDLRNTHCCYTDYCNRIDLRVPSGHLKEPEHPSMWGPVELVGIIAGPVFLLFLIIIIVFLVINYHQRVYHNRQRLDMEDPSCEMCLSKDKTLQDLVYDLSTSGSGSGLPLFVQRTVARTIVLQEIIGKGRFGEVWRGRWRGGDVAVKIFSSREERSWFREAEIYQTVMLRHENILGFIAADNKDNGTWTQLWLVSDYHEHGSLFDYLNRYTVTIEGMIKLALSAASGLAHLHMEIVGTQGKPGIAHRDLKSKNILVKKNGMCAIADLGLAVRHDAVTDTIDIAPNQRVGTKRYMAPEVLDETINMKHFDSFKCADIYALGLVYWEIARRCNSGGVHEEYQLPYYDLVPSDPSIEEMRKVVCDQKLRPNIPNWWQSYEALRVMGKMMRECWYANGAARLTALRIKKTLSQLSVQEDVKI
Experimental: as §1

[3] = cell-based assay, read-out: Cell IC50 BMP6
[4] = Cell IC50 BMP6, cell-based assay

Sequence of ALK6 (O00238 14-502): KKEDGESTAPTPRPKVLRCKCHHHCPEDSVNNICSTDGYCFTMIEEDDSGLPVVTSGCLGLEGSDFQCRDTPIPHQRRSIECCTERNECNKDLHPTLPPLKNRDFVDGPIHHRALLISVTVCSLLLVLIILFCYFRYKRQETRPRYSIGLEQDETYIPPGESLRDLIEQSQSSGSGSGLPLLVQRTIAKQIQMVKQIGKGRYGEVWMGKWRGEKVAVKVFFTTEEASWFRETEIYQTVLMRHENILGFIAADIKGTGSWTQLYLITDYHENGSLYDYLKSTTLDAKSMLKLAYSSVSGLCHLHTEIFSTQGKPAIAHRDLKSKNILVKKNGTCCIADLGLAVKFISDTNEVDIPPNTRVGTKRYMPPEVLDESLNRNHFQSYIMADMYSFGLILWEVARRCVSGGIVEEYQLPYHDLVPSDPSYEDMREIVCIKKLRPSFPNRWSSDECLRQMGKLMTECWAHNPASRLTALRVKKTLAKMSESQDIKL
Sequence of ALK3 (P36894 24-532): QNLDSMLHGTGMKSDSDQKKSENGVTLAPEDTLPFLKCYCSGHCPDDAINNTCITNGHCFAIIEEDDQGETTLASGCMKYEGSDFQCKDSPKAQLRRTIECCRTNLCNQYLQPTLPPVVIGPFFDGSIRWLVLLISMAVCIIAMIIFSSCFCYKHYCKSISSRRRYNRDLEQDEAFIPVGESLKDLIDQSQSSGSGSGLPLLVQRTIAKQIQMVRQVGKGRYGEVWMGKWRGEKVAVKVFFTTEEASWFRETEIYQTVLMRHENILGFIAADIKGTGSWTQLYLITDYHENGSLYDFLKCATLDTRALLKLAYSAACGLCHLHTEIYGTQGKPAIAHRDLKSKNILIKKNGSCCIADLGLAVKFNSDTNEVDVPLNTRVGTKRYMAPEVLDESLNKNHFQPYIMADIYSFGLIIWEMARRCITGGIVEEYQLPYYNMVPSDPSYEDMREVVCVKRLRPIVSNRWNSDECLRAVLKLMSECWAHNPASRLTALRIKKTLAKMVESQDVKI
Sequence of ALK1 (P37023 22-503): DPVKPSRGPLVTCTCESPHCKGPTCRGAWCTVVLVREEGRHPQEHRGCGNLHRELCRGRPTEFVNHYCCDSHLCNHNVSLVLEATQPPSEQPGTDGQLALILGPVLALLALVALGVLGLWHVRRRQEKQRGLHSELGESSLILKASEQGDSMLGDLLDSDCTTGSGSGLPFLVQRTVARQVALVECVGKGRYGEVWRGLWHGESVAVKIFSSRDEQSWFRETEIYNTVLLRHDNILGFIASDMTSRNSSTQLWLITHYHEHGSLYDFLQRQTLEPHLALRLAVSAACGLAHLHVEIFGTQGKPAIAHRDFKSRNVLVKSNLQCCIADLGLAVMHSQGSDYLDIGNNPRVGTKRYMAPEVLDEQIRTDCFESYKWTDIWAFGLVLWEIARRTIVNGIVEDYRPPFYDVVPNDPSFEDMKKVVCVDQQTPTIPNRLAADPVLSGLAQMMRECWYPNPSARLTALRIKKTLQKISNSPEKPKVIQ

Row | IC50 (ALK5) [nM] | IC50 (ALK6) [nM] | IC50 (ALK1) [nM] | IC50 (ALK2 [1]; [3]) [nM] | IC50 (ALK2 [2]) [nM] | IC50 (ALK3) [nM] | IC50 (ALK4) [nM] | IC50 (ALK5; read-out: Kinase Assay ALK5, enzyme assay) [nM] | IC50 (ALK6; read-out: Kinase Assay ALK6, enzyme assay) [nM] | IC50 (ALK1; read-out: Kinase Assay ALK1, enzyme assay) [nM] | IC50 (ALK2 [2]; read-out: Kinase Assay ALK2, enzyme assay) [nM] | IC50 (ALK3; read-out: Kinase Assay ALK3, enzyme assay) [nM] | IC50 (ALK4; read-out: Kinase Assay ALK4, enzyme assay) [nM] | Molecule | IC50 (ALK2 [1]; [4]) [nM]
1 | > 10000 | > 10000 | 390 | 5500 | 130 | 2000 | > 10000 | – | – | – | – | – | – | C[C@@H]1CNC[C@H](C)N1c1ccc(-c2cnc3c(-c4ccc(Cl)c5ccccc45)cnn3c2)cc1 [Compound 44, 3-(4-chloronaphthalen-1-yl)-6-(4-((2R,6S)-2,6-dimethylpiperazin-1-yl)phenyl)pyrazolo[1,5-a]pyrimidine] | –
2 | > 10000 | > 10000 | 170 | – | – | – | > 10000 | – | – | – | – | – | – | CC(C)(CN1CCCCC1)Oc1ccc(-c2cnc3c(-c4ccc(S(N)(=O)=O)c5ccccc45)cnn3c2)cc1 [Compound 52, 4-(6-(4-((2-methyl-1-(piperidin-1-yl)propan-2-yl)oxy)phenyl)pyrazolo[1,5-a]pyrimidin-3-yl)naphthalene-1-sulfonamide] | 8
3 | > 10000 | > 10000 | 760 | 750 | – | – | > 10000 | – | – | – | – | – | – | C[C@@H]1CNC[C@H](C)N1c1ccc(-c2cnc3c(-c4ccc(S(N)(=O)=O)c(N)c4)cnn3c2)cc1 [Compound 57, 2-amino-4-(6-(4-((2R,6S)-2,6-dimethylpiperazin-1-yl)phenyl)pyrazolo[1,5-a]pyrimidin-3-yl)benzenesulfonamide] | –
4 | > 10000 | > 10000 | 210 | 609 | – | – | > 10000 | – | – | – | – | – | – | C[C@@H]1CNC[C@H](C)N1c1ccc(-c2cnc3c(-c4cccc(S(N)(=O)=O)c4)cnn3c2)cc1 [Compound 60, 3-(6-(4-((2R,6S)-2,6-dimethylpiperazin-1-yl)phenyl)pyrazolo[1,5-a]pyrimidin-3-yl)benzenesulfonamide] | –
5 | – | – | – | 225 | – | – | – | – | – | – | – | – | – | CS(=O)(=O)c1cccc(-c2cnn3cc(-c4ccc(OCCn5ccnc5)cc4)cnc23)c1 [Compound 102, 6-(4-(2-(1H-imidazol-1-yl)ethoxy)phenyl)-3-(3-(methylsulfonyl)phenyl)pyrazolo[1,5-a]pyrimidine] | –
6 | > 10000 | 2300 | 1300 | – | 68 | 1200 | > 10000 | – | – | – | – | – | – | C[C@H](O)c1cccc(-c2cnn3cc(-c4ccc(OCCN5CCCC5)cc4)cnc23)c1 [Compound 200, (S)-1-(3-(6-(4-(2-(pyrrolidin-1-yl)ethoxy)phenyl)pyrazolo[1,5-a]pyrimidin-3-yl)phenyl)ethanol] | –
7 | > 10000 | > 10000 | 1000 | – | 43 | 1000 | > 10000 | – | – | – | – | – | – | C[C@H](O)c1cccc(-c2cnn3cc(-c4ccc(OCCN5CCCCC5)cc4)cnc23)c1 [Compound 201, (S)-1-(3-(6-(4-(2-(piperidin-1-yl)ethoxy)phenyl)pyrazolo[1,5-a]pyrimidin-3-yl)phenyl)ethanol] | –
8 | > 10000 | > 10000 | 4600 | – | 1200 | > 10000 | > 10000 | – | – | – | – | – | – | NS(=O)(=O)c1ccc(-c2cnn3cc(-c4ccc(OC(F)(F)CN5CCCCC5)cc4)cnc23)c2ccccc12 [Compound 206, 4-(6-(4-(1,1-difluoro-2-(piperidin-1-yl)ethoxy)phenyl)pyrazolo[1,5-a]pyrimidin-3-yl)naphthalene-1-sulfonamide] | –
9 | > 10000 | > 10000 | 170 | – | 16 | > 10000 | > 10000 | – | – | – | – | – | – | NS(=O)(=O)c1ccc(-c2cnn3cc(-c4ccc(OC5(CN6CCCC6)CC5)cc4)cnc23)c2ccccc12 [Compound 207, 4-(6-(4-(1-(pyrrolidin-1-ylmethyl)cyclopropoxy)phenyl)pyrazolo[1,5-a]pyrimidin-3-yl)naphthalene-1-sulfonamide] | –
10 | > 10000 | > 10000 | 200 | – | 15 | > 10000 | > 10000 | – | – | – | – | – | – | NS(=O)(=O)c1ccc(-c2cnn3cc(-c4ccc(OC5(CN6CCCCC6)CC5)cc4)cnc23)c2ccccc12 [Compound 208, 4-(6-(4-(1-(piperidin-1-ylmethyl)cyclopropoxy)phenyl)pyrazolo[1,5-a]pyrimidin-3-yl)naphthalene-1-sulfonamide] | –
11 | > 10000 | > 10000 | 340 | – | 69 | > 10000 | > 10000 | – | – | – | – | – | – | NC1(c2ccc(-c3cnc4c(-c5ccc(S(N)(=O)=O)c6ccccc56)cnn4c3)cc2)CNC1 [Compound 209, 4-(6-(4-(3-aminoazetidin-3-yl)phenyl)pyrazolo[1,5-a]pyrimidin-3-yl)naphthalene-1-sulfonamide] | –
12 | – | – | – | – | – | – | – | > 10000 | > 10000 | 540 | 44 | 1800 | > 10000 | (3R)-1-((1-(4-(3-(3-(1-amino-2,2,2-trifluoroethyl)phenyl)pyrazolo[1,5-a]pyrimidin-6-yl)phenoxy)cyclopropyl)methyl)-3-methylpyrrolidin-3-ol [Compound 185] | –

Row | Molecule | IC50 (ALK5) [nM] | IC50 (ALK6) [nM] | IC50 (ALK1) [nM] | IC50 (ALK2 [1]; [3]) [nM] | IC50 (ALK2 [2]) [nM] | IC50 (ALK3) [nM] | IC50 (ALK4) [nM] | IC50 (ALK5; read-out: Kinase Assay ALK5, enzyme assay) [nM] | IC50 (ALK6; read-out: Kinase Assay ALK6, enzyme assay) [nM] | IC50 (ALK1; read-out: Kinase Assay ALK1, enzyme assay) [nM] | IC50 (ALK2 [2]; read-out: Kinase Assay ALK2, enzyme assay) [nM] | IC50 (ALK3; read-out: Kinase Assay ALK3, enzyme assay) [nM] | IC50 (ALK4; read-out: Kinase Assay ALK4, enzyme assay) [nM] | IC50 (ALK2 [1]; [4]) [nM]
13 | NS(=O)(=O)c1ccc(-c2cnn3cc(-c4ccc(N5CCNCC5)nc4)cnc23)c2ccccc12 [Compound 49, 4-(6-(6-(piperazin-1-yl)pyridin-3-yl)pyrazolo[1,5-a]pyrimidin-3-yl)naphthalene-1-sulfonamide] | > 10000 | > 10000 | 1700 | – | – | – | > 10000 | – | – | – | – | – | – | 316
